For orientation: melting point means the temperature, or range, at which the solid turns liquid. As usually defined, the IC50 is the concentration that gives 50% inhibition.

One data set deals with SCC9 (OSCC cell). As to the kind of experiment: MTT cell viability assay (cytotoxicity), SCC9. The data set is classed as cell-based, human. The note with it: for IC50: SCC9, 48 h, MTT (Table 1), read-out: SCC9—Oral Cancer IC50; for SCC9 S.I.: IC50 normal oral fibroblasts / IC50 SCC9. The method, then: (§1) Cells and reagents. Human SCC-4, SCC-9, and SCC-25 cells, derived from a human oral tongue SCC (squamous cell carcinoma) were obtained from the ATCC (CRL-1624, CRL-1629, and CRL-1628, respectively) and maintained in 1:1 DMEM/F12 (Dulbecco’s modified Eagle medium and Ham’s F12 medium; Gibco (Thermo Fisher, Waltham, MA, USA)) supplemented with 10% (v/v) FBS (fetal bovine serum; Invitrogen, Thermo Fisher, Waltham, MA, USA) and 400 ng/mL hydrocortisone (Sigma-Aldrich Co., St. Louis, MO, USA). Primary normal human gingival fibroblasts were obtained from the ATCC (PCS-201-018) and maintained in DMEM supplemented with 10% (v/v) FBS and were used in a maximum of six passages. The cells were grown in a humidified environment containing 5% CO2 at 37 °C. […] Carboplatin stock was prepared in water (Fauldcarbo®; LibbsFarmacêutica, São Paulo, SP, Brazil) and was used as a standard anticancer compound.
(§2) Cell viability assay (cytotoxicity) and compound stability assay. The viability of SCC cell lines and primary human fibroblast cells was evaluated using the MTT assay as in [48]. Briefly, the cells were grown in triplicates in 96-well plates (5 × 10^3 cells/well) until confluence. Then, the medium was removed, fresh medium was added, and the cells were returned to the incubator in the presence of different compounds. DMSO at the same concentrations was used as a 100% cell viability control. After 48 h, the cells were incubated with 5 mg/mL MTT reagent (3-(4,5-dimethyl-2-thiazolyl)-2,5-diphenyl-2-H-tetrazolium bromide) (Sigma-Aldrich Co., St. Louis, MO, USA) for 3.5 h. After that, formazan crystals were dissolved in MTT solvent solution (DMSO/methanol 1:1 v/v) and the absorbance at 560 nm was evaluated using an EPOCH microplate spectrophotometer (BioTek Instruments, Winooski, VT, USA) with the background absorbance at 670 nm subtracted.
(§3) Statistical analysis, IC50 calculation. The data are presented as means ±\SD. IC50 values for the MTT assays were obtained by nonlinear regression using the […] 5.0 program (Intuitive Software for Science, San Diego, CA, USA) from at least three independent experiments. A dose–response (inhibitor) vs. response curve using the least squares method was used to determine the IC50, SD, and R^2 of the data. The selectivity index was calculated as SI = IC50 of the compound in normal oral fibroblast cells/IC50 of the same compound for each oral cancer cell line (SCC-4, SCC-9, and SCC-25) and the mean was calculated when indicated.

The subject of another data set is SCC4 OSCC cell line. As to the kind of experiment: MTT cell viability assay (cytotoxicity), SCC4. Format: cell-based, human. Particulars: for IC50: SCC4, 48 h, MTT, read-out: Oral Tumor Cells SCC4 IC50; for SCC4 S.I.: IC50 normal oral fibroblasts / IC50 SCC4. The procedure: as §1, §2, §3
On the technique in general: Tetrazolium assays rely on reduction of a dye to a coloured formazan, in cell work by metabolically active cells.

Data set [1] concerns Primary normal human gingival fibroblasts. As to the kind of experiment: MTT cell viability assay, normal fibroblasts. Format: cell-based. Particulars: primary gingival fibroblasts, 48 h, MTT, read-out: Primary Gingival Fibroblast IC50. The method, then:
as §1, §2, §3

For another data set, the system named is SCC25 OSCC cell line. Nature of the data set: MTT cell viability assay (cytotoxicity), SCC25. The data set is classed as cell-based, human. Particulars: for IC50: SCC25, 48 h, MTT, read-out: Oral Tumor Cells SCC25 IC50; for SCC25 S.I.: IC50 normal oral fibroblasts / IC50 SCC25. The method, then:
as §1, §2, §3

The nature of data set [2]: Solubility observation during MTT testing. The data set is classed as physicochemical. The method, then:
All 26 acridine-core naphthoquinone compounds were submitted to the MTT assay to assess their cytotoxicity. […] These compounds were excluded from further biological experimentation. First, the assay was conducted on the SCC9 OSCC cell line and the results were analyzed by a nonlinear regression curve to determine the value of the half maximal inhibitory concentration (IC50). […] Anticancer activities of these compounds are reported here for the first time.

The mark [3] stands for this setting: formed crystals at low concentrations in MTT assay.

Where two headings read alike, the source gives them in different places.

`CC1(C)CC(=O)C2=C(C1)NC1=C(C(=O)c3ccccc3C1=O)C2c1ccc(Br)cc1` (stereo not drawn) [4h, 12-(4-bromophenyl)-3,3-dimethyl-3,4-dihydrobenzo[b]acridine-1,6,11(2H,5H,12H)-trione] gave a melting point of 293 to 295 °C. For the same compound, the IC50 in the data set on SCC9 (OSCC cell) (Homo sapiens, SCC-9) turned out to be 5.86 µM.

`CC(C)=CCC1=C(O)C(=O)c2ccccc2C1=O` [Lapachol, lapachol]: the IC50 in the data set on SCC4 OSCC cell line (Homo sapiens, SCC-4) was 76.9 µM; in data set [1] (Homo sapiens, Fibroblast), 106 µM; with SCC25 OSCC cell line (Homo sapiens, SCC-25) it was 93.8 µM; in the data set with SCC9 (OSCC cell) (Homo sapiens, SCC-9) it was 58.3 µM. In the data set on SCC4 OSCC cell line, the “SCC4 S.I.” value is 1.4. Also, the “SCC25 S.I.” value in the data set with SCC25 OSCC cell line is 1.1. Also, the “SCC9 S.I.” value in the data set with SCC9 (OSCC cell) amounted to 1.8.

For the compound `COc1ccc(C2C3=C(CCCC3=O)NC3=C2C(=O)c2ccccc2C3=O)c(OC)c1` (stereo not drawn) [5j, 12-(2,4-dimethoxyphenyl)-3,4-dihydrobenzo[b]acridine-1,6,11(2H,5H,12H)-trione], in the data set on SCC9 (OSCC cell) (Homo sapiens, SCC-9), the IC50 was found to be 6.84 µM.

Take “12-(3,3-dimethylphenyl)-3,4-dihydrobenzo[b]acridine-1,6,11(2H,5H,12H)-trione [4a]”: in data set [2], the solubility result is listed as “highly insoluble”.

Regarding `CC1(C)CC(=O)C2=C(C1)NC1=C(C(=O)c3ccccc3C1=O)C2c1c(F)c(F)c(F)c(F)c1F` (stereo not drawn) [4g, 12-(perfluorophenyl)-3,3-dimethyl-3,4-dihydrobenzo[b]acridine-1,6,11(2H,5H,12H)-trione], the melting point lay within 260 to 261 °C. Also, the solubility result in data set [2] (setting [3]) was “highly insoluble”.

In turn, `CC1(C)CC(=O)C2=C(C1)NC1=C(C(=O)c3ccccc3C1=O)C2c1ccc(Cl)cc1` (stereo not drawn) [4d, 12-(4-chlorophenyl)-3,3-dimethyl-3,4-dihydrobenzo[b]acridine-1,6,11(2H,5H,12H)-trione] came in with a melting point of 287 to 288 °C. For the same compound, the IC50 in the data set on SCC9 (OSCC cell) (Homo sapiens, SCC-9) is 51.6 µM.

For `O=C1CCCC2=C1C(c1ccc(Cl)cc1Cl)C1=C(N2)C(=O)c2ccccc2C1=O` (stereo not drawn) [5e, 12-(2.4-dichlorophenyl)-3,4-dihydrobenzo[b]acridine-1,6,11(2H,5H,12H)-trione], the IC50 in the data set on SCC9 (OSCC cell) (Homo sapiens, SCC-9) was 4.75 µM.

For the compound `N.N.O=C([O-])C1(C(=O)[O-])CCC1.[Pt+2]` [Carboplatin, carboplatin], in the data set with SCC4 OSCC cell line, the “SCC4 S.I.” value came out at 3.1. In addition, the IC50 was 180 µM in the data set with SCC4 OSCC cell line, 560 µM in data set [1], 186 µM in the data set with SCC25 OSCC cell line and 250 µM with SCC9 (OSCC cell). Further, the “SCC25 S.I.” value in the data set with SCC25 OSCC cell line came out at 3.0. Moreover, the “SCC9 S.I.” value in the data set with SCC9 (OSCC cell) is recorded as 2.2.

For the compound `CC1(C)CC(=O)C2=C(C1)NC1=C(C(=O)c3ccccc3C1=O)C2c1ccccc1Cl` (stereo not drawn) [4b, 12-(2-chlorophenyl)-3,3-dimethyl-3,4-dihydrobenzo[b]acridine-1,6,11(2H,5H,12H)-trione], the solubility entry in data set [2] (setting [3]) is listed as “highly insoluble”.

Compound `O=C1CCCC2=C1C(c1ccc(Cl)cc1)C1=C(N2)C(=O)c2ccccc2C1=O` (stereo not drawn) [5d, 12-(4-chlorophenyl)-3,4-dihydrobenzo[b]acridine-1,6,11(2H,5H,12H)-trione] returned a melting point of 230 to 231 °C. For the same compound, the IC50 in the data set with SCC9 (OSCC cell) (Homo sapiens, SCC-9) stood at 2.21 µM.

In the case of `CC1(C)CC(=O)C2=C(C1)NC1=C(C(=O)c3ccccc3C1=O)C2c1cccc(Cl)c1` (stereo not drawn) [4c, 12-(3-chlorophenyl)-3,3-dimethyl-3,4-dihydrobenzo[b]acridine-1,6,11(2H,5H,12H)-trione], the melting point was in the range of 249 to 251 °C. Moreover, the IC50 in the data set on SCC9 (OSCC cell) (Homo sapiens, SCC-9) came to 14.7 µM.

With `Cc1ccc(C2C3=C(CCCC3=O)NC3=C2C(=O)c2ccccc2C3=O)c(C)c1` (stereo not drawn) [5i, 12-(2,4-dimethylphenyl)-3,4-dihydrobenzo[b]acridine-1,6,11(2H,5H,12H)-trione], the melting point was 263 to 264 °C. In addition, in data set [2] (setting [3]), the solubility entry is given as “highly insoluble”.

With `COc1ccc(C2C3=C(CC(C)(C)CC3=O)NC3=C2C(=O)c2ccccc2C3=O)cc1OC` (stereo not drawn) [4l, 12-(3,4-dimethoxyphenyl)-3,3-dimethyl-3,4-dihydrobenzo[b]acridine-1,6,11(2H,5H,12H)-trione], the melting point lay in the range of 238 to 239 °C. In the data set on SCC9 (OSCC cell) (Homo sapiens, SCC-9), the IC50 worked out at 4.46 µM.

Compound `O=C1CCCC2=C1C(c1cccc(Cl)c1)C1=C(N2)C(=O)c2ccccc2C1=O` (stereo not drawn) [5c, 12-(3-chlorophenyl)-3,4-dihydrobenzo[b]acridine-1,6,11(2H,5H,12H)-trione] yielded a melting point of 217 to 218 °C. Further, the IC50 in the data set with SCC9 (OSCC cell) (Homo sapiens, SCC-9) was 8.93 µM.

On to `CC1(C)CC(=O)C2=C(C1)NC1=C(C(=O)c3ccccc3C1=O)C2c1ccc(F)cc1` (stereo not drawn) [4f, 12-(4-fluorophenyl)-3,3-dimethyl-3,4-dihydrobenzo[b]acridine-1,6,11(2H,5H,12H)-trione], for which the melting point lay in the range of 295 to 297 °C. In data set [2] (setting [3]), the solubility entry is recorded as “highly insoluble”.

Turning to `COc1ccc(OC)c(C2C3=C(CCCC3=O)NC3=C2C(=O)c2ccccc2C3=O)c1` (stereo not drawn) [5k, 12-(2,5-dimethoxyphenyl)-3,4-dihydrobenzo[b]acridine-1,6,11(2H,5H,12H)-trione], the melting point is 219 to 220 °C. For the same compound, the IC50 in the data set with SCC9 (OSCC cell) (Homo sapiens, SCC-9) was 7.2 µM.

In the case of `O=C1CCCC2=C1C(c1ccccc1Cl)C1=C(N2)C(=O)c2ccccc2C1=O` (stereo not drawn) [5b, 12-(2-chlorophenyl)-3,4-dihydrobenzo[b]acridine-1,6,11(2H,5H,12H)-trione], in data set [2] (setting [3]), the solubility entry is given as “highly insoluble”.

Take `Cc1ccc(C2C3=C(CC(C)(C)CC3=O)NC3=C2C(=O)c2ccccc2C3=O)c(C)c1` (stereo not drawn) [4i, 12-(2,4-dimethylphenyl)-3,3-dimethyl-3,4-dihydrobenzo[b]acridine-1,6,11(2H,5H,12H)-trione]: in data set [2] (setting [3]), the solubility result was “highly insoluble”.

For `O=C1CCCC2=C1C(c1ccc(F)cc1)C1=C(N2)C(=O)c2ccccc2C1=O` (stereo not drawn) [5f, 12-(4-fluorophenyl)-3,4-dihydrobenzo[b]acridine-1,6,11(2H,5H,12H)-trione], the melting point lay within 255 to 256 °C. In data set [2] (setting [3]), the solubility entry is on record as “highly insoluble”.

In the case of `O=C1CCCC2=C1C(c1c(F)c(F)c(F)c(F)c1F)C1=C(N2)C(=O)c2ccccc2C1=O` (stereo not drawn) [5g, 12-(perfluorophenyl)-3,4-dihydrobenzo[b]acridine-1,6,11(2H,5H,12H)-trione], the solubility entry in data set [2] (setting [3]) is “highly insoluble”.

`COc1cc(C2C3=C(CCCC3=O)NC3=C2C(=O)c2ccccc2C3=O)cc(OC)c1OC` (stereo not drawn) [5m, 12-(3,4,5-trimethoxyphenyl)-3,4-dihydrobenzo[b]acridine-1,6,11(2H,5H,12H)-trione] yielded a melting point of 236 to 237 °C. In the data set on SCC9 (OSCC cell) (Homo sapiens, SCC-9), the IC50 stood at 3.32 µM.

Compound `O=C1CCCC2=C1C(c1ccccc1)C1=C(N2)C(=O)c2ccccc2C1=O` (stereo not drawn) [5a, 12-phenyl-3,4-dihydrobenzo[b]acridine-1,6,11(2H,5H,12H)-trione] returned a melting point of 287 to 288 °C. The solubility result in data set [2] (setting [3]) is “highly insoluble”.

On to `COc1ccc(C2C3=C(CCCC3=O)NC3=C2C(=O)c2ccccc2C3=O)cc1OC` (stereo not drawn) [5l, 12-(3,4-dimethoxyphenyl)-3,4-dihydrobenzo[b]acridine-1,6,11(2H,5H,12H)-trione], for which the melting point lay in the range of 228 to 230 °C. Further, the IC50 with SCC9 (OSCC cell) (Homo sapiens, SCC-9) worked out at 5.9 µM.

`O=C1CCCC2=C1C(c1ccc(Br)cc1)C1=C(N2)C(=O)c2ccccc2C1=O` (stereo not drawn) [5h, 12-(4-bromophenyl)-3,4-dihydrobenzo[b]acridine-1,6,11(2H,5H,12H)-trione]: the melting point fell in the range of 257 to 258 °C. Besides, the IC50 with SCC9 (OSCC cell) (Homo sapiens, SCC-9) came to 7.63 µM.
